Assay results published in patent US8546579B2, “Bicycloheteroaryl compounds as P2X7 modulators and uses thereof” (Evotec (US) Inc., priority 2006, dated 2013).
pIC50: −log10 of the molar value.

Each molecule was assayed against T1, P2X7 receptor (Homo sapiens, UniProt Q99572) (assay: IL-1β release assay in differentiated THP-1 cells stimulated with BzATP (Example 9)). Conditions: 0.3 μM compound; differentiated THP-1 cells, BzATP 250 uM; '+' class symbols; read-out: IL-1β % Inhib. @ 0.3 μM.
T1 construct: host or cells: THP-1 cells differentiated with LPS and IFN-γ
T1 sequence (Q99572 1-595): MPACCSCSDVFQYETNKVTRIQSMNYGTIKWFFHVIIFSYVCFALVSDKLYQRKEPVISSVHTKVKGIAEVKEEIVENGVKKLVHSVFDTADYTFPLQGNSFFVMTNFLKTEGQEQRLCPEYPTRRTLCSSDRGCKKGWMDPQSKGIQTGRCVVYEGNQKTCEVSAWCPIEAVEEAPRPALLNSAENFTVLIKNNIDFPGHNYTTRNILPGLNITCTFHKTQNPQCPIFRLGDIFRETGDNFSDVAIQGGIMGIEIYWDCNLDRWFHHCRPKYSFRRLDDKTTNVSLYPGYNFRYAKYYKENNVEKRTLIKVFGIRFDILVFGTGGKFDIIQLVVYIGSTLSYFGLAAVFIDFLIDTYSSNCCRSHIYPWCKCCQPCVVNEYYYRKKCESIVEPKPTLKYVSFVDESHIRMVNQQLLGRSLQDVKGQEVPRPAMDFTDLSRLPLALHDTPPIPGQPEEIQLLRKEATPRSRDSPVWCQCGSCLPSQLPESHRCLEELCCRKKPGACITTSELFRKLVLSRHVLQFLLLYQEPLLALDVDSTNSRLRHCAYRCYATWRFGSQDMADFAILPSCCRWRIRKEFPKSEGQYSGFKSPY
Format: cell-based
Set-up: inhibition: dose or concentration left out as unconfirmed
Method in brief: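 THP-1 cells differentiated 16 h with LPS and IFN-γ (100 ng/mL each), re-primed 2 h with LPS, then compound-pretreated 30 min before 250 uM BzATP for 45 min. Supernatant IL-1β quantified by ELISA; background-adjusted percent inhibition fitted to four-parameter logistic for IC50.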

Row | inhibition at 0.3 µM | Compound
1 | 0 to 25% | Cc1cccc(C(=O)Nc2cccc3c(=O)n(CC4CCOCC4)ccc23)c1 [Compound 1090]
2 | 0 to 25% | O=C(Cc1ccc2c(c1)OCO2)Nc1cccc2c(=O)n(CC3CCOCC3)ccc12 [Compound 1110]
3 | 26 to 50% | O=C(CC1C[C@@H]2CC[C@H]1C2)Nc1cccc2c(=O)n(CC3CCOCC3)ccc12 (stereo partly drawn) [Compound 1115]
4 | 0 to 25% | COc1ccc(CC(=O)Nc2cccc3c(=O)n(CC4CCOCC4)ccc23)cc1OC [Compound 1103]
5 | 0 to 25% | CCOc1ccc(C(=O)Nc2cccc3c(=O)n(CC4CCOCC4)ccc23)cc1 [Compound 1091]
6 | 0 to 25% | CCOc1cccc(C(=O)Nc2cccc3c(=O)n(CC(C)(C)C)ccc23)c1 [Compound 1053]
7 | 0 to 25% | CC(C)(C)c1ccc(C(=O)Nc2cccc3c(=O)n(CC4CCOCC4)ccc23)cc1 [Compound 1092]
8 | 0 to 25% | CCOc1ccc(C(=O)Nc2cccc3c(=O)n(CC4CCOCC4)ccc23)c(O)c1 [Compound 1025]
9 | 0 to 25% | CC(C)Cc1ccc(C(=O)Nc2cccc3c(=O)n(CC4CCOCC4)ccc23)cc1 [Compound 1136]
10 | 0 to 25% | COc1ccc(C(=O)Nc2cccc3c(=O)n(Cc4cccnc4)ccc23)c(C)c1 [Compound 1073]
11 | 0 to 25% | Cc1cc(C)cc(CC(=O)Nc2cccc3c(=O)n(CC4CCOCC4)ccc23)c1 [Compound 1121]
12 | 0 to 25% | COc1c(C)cc(C(=O)Nc2cccc3c(=O)n(CCN(C)C)ccc23)cc1C [Compound 1165]
13 | 0 to 25% | O=C(CCc1ccc(Cl)cc1)Nc1cccc2c(=O)n(CC3CCOCC3)ccc12 [Compound 1125]
14 | 26 to 50% | Cc1cccc(C(=O)Nc2cccc3c(=O)n(CCN4CCOCC4)ccc23)c1C [Compound 1192]
15 | 0 to 25% | CN(C)CCn1ccc2c(NC(=O)Cc3ccc(F)cc3)cccc2c1=O [Compound 1018]

Same assay, conditions: 0.3 μM compound; differentiated THP-1 cells, BzATP 250 uM; symbols + to ++++; read-out: IL-1β % Inhib. @ 0.3 μM

Row | inhibition at 0.3 µM | Compound
16 | 0 to 25% | Cc1ccc(CCC(=O)Nc2cccc3c(=O)n(CC(C)(C)C)ccc23)c(C)c1 [Compound 1286]
17 | 0 to 25% | O=C(CCCc1ccccc1)Nc1cccc2c(=O)n(CCN3CCOCC3)ccc12 [Compound 1215]
18 | 0 to 25% | Cn1ccc2c(NC(=O)c3cccc4c3OCCO4)cccc2c1=O [Compound 1304]
19 | 0 to 25% | COCCn1ccc2c(NC(=O)Cc3cc(OC)cc(OC)c3)cccc2c1=O [Compound 1322]
20 | 0 to 25% | CC(C)(C)Cn1ccc2c(NC(=O)Cc3ccccc3F)cccc2c1=O [Compound 1252]
21 | 0 to 25% | COc1ccc(C(=O)Nc2cccc3c(=O)n(Cc4cccnc4)ccc23)cc1C [Compound 1371]
22 | 0 to 25% | Cc1cc(C(=O)Nc2cccc3c(=O)n(CC(C)(C)C)ccc23)ccc1F [Compound 1279]

Same assay, conditions: THP-1; read-out: IL-1β % Inhib.

Row | inhibition | Compound
23 | 0 to 25% | Cc1ccccc1CC(=O)Nc1cccc2c(=O)n(Cc3ccc(OC(F)(F)F)cc3)ccc12 [Compound 1579]
24 | 0 to 25% | COc1ccc(C(=O)Nc2cccc3c(=O)n(Cc4ccc(OC(F)(F)F)cc4)ccc23)c(C)c1 [Compound 1548]
25 | 0 to 25% | Cc1ccc(C)c(CC(=O)Nc2cccc3c(=O)n(Cc4ccc(OC(F)(F)F)cc4)ccc23)c1 [Compound 1554]
26 | 0 to 25% | O=C(Cc1ccc2c(c1)OCO2)Nc1cccc2c(=O)n(CCCN3CCCC3=O)ccc12 [Compound 1527]
27 | 0 to 25% | O=C(Nc1cccc2c(=O)n(Cc3ccc(OC(F)(F)F)cc3)ccc12)c1ccc2c(c1)OCCCO2 [Compound 1596]
28 | 0 to 25% | O=C(Cc1ccc2c(c1)OCO2)Nc1cccc2c(=O)n(Cc3ccc(OC(F)(F)F)cc3)ccc12 [Compound 1588]
29 | 26 to 50% | COCCn1ccc2c(NC(=O)Cc3ccccc3C)cccc2c1=O [Compound 1438]
30 | 0 to 25% | Cc1cccc(C(=O)Nc2cccc3c(=O)n(Cc4ccc(OC(F)(F)F)cc4)ccc23)c1C [Compound 1563]
31 | 0 to 25% | O=C(CC1CC2CC[C@H]1C2)Nc1cccc2c(=O)n(Cc3ccc(OC(F)(F)F)cc3)ccc12 (stereo partly drawn) [Compound 1593]
32 | 0 to 25% | COc1ccc(C(=O)Nc2cccc3c(=O)n(Cc4ccc(OC(F)(F)F)cc4)ccc23)cc1Cl [Compound 1555]

Same assay, conditions: THP-1 cells, BzATP-stimulated IL-1β release, four parameter logistic fit

Row | pIC50 | Compound
33 | < 6.00 | CN(C)CCn1ccc2c(NC(=O)Cc3ccc(F)cc3)cccc2c1=O [Compound 1018]
